What was measured:
[1] = test system: HIV-1 (NL4-3 strain); assay: CPE-based antiviral assay in HIV-1-infected MT-4 cells (XTT); type: cell-based; conditions: Human immunodeficiency virus 1, NL43, MT4, 120 h, cytopathic effect-based assay, MT-4 cells infected by HIV-1 (NL4-3 strain), 5 days post-infection
From the text: (§1) Based on a facile [2 + 2 + 2]‐cycloisomerization strategy, a robust three‐step synthetic entry into a novel family of helical extended diquats (helquats) was developed. After a straightforward Knoevenagel condensation of the respective helquat parent with different aldehydes (Fig. 2A), more than 500 helquat-based compounds were synthesized and screened for anti-HIV-1 activity in an assay based on the inhibition of the virus-induced cytopathic effect in MT-4 cells, evaluated after 5 days post-infection by an XTT assay. In parallel with the screening, the XTT assay was also used to determine the cytotoxicity of all compounds (Fig. 2B; for more information on the synthesis and characterization of the compounds, see the Supplementary Information). […]
(§2) XTT screening. MT-4 cells were seeded in 80 µl of the RPMI without Phenol Red in the amount of 3x10^4 cells per well of a 96-well plate. 10 µl of tested compounds (500 µM at 5% DMSO) or controls (5% DMSO at PBS, AZT 1mM, SQV 100 µM) were added to the cells; after one-hour incubation at 37 °C, HIV-1 (NL4-3 strain) was added with MOI = 0.05 and the infected cells were cultivated for five days.
The viability of the cells was measured by the XTT cell viability and proliferation assay. Briefly, 50 µl of the XTT solution with the addition of PMS (both VWR) was added to the cultivation media and incubated in a humidified incubator maintained at 37 °C with 5% CO2 for four hours, after which absorbance at 560 nm was measured on a VICTOR plate reader (PerkinElmer). […]
(§3) For compounds selected as hits in the initial screening, the effective concentration that inhibits 50% of the viral activity (EC50) and the cytotoxic concentration that reduces the MT -4 cell viability by 50% (CC50) were determined. Viral activity was evaluated after five days as an HIV-1-induced cytopathic effect quantified by the XTT assay. Selected hits were tested at two-fold serial dilutions from 50 µM concentration, and the drug concentrations required to reduce the viral cytopathic effect by 50% (EC 50) as well as the drug concentrations that reduced MT-4 cell viability by 50% (CC50) were calculated by nonlinear regression using GraphPad Prism v.8.0.0 (GraphPad Software).

[2] = in vitro; type: cell-based; conditions: human
From the text: as §1, §2
The viability of the cells was measured by the XTT cell viability and proliferation assay. Briefly, 50 µl of the XTT solution with the addition of PMS (both VWR) was added to the cultivation media and incubated in a humidified incubator maintained at 37 °C with 5% CO2 for four hours, after which absorbance at 560 nm was measured on a VICTOR plate reader (PerkinElmer).
The cytotoxicity of the tested compounds was evaluated separately without virus addition and analysed by the same assay.
as §3

[3] = test system: c-myc G-quadruplex; assay: Light-up experiment, c-myc; type: binding; conditions: 4 μM compound, excitation 280 nm
Experimental: (§4) The intensity of fluorescence measured after the incubation with both oligonucleotides incompetent of G-quadruplex formation was almost identical, with the maximum intensity 2.5 times lower than that of the G-quadruplex-forming oligonucleotide (wt). […] To examine the specificity of ligand 12, we have repeated the light-up experiment with single-stranded G4 LTR in parallel with double-stranded G4 LTR and additional G-quadruplexes (c-myc, c-kit1 and h-telo). […] To further evaluate the specificity of ligand 12, we performed the light-up titration experiment incubating compound 12 with serial dilutions (1:1) of oligonucleotides (ss G4 LTR wild type, G4 c-myc and c-kit1) spanning final concentrations 2 to 0.002 μM (Supplement Fig. S3B). […] This can indicate a slight preference of ligand 12 for ss G4 LTR than for c-myc at lower oligonucleotide concentrations.
(§5) The selected compounds were incubated in the presence of the G4 LTR wild-type (wt) oligonucleotide, the G4 LTR M4 + M5 oligonucleotide containing mutations that disabled G-quadruplex formation (described previously[41]), and the G4 LTR scrambled-sequence oligonucleotide, or the buffer-only control. The compounds were tested at a compound:oligonucleotide ratio of 2:1 (4 μM compounds and 2 μM oligonucleotide) in PBS in a 384-well plate. Emission spectra were measured after excitation at 280 nm in a Tecan Infinite M1000 plate reader. […]

[4] = test system: ss G4 LTR wild-type oligonucleotide; assay: Light-up experiment, ss G4 LTR; type: binding, HIV-1; conditions: 4 μM compound
Experimental: There are many small molecular probes for specific G4 visualization in cells. […] To distinguish specifically the potential light-up triggered by helquat binding to G-quadruplexes in the HIV-1 LTR, we employed two control oligonucleotides, both unable to form G-quadruplexes (Fig. 6A): an LTR oligonucleotide sequence with two point mutations precluding G4 formation and an LTR oligonucleotide with a scrambled sequence (both adopted from[41]).
The selected compounds were incubated in the presence of the G4 LTR wild-type (wt) oligonucleotide, the G4 LTR M4 + M5 oligonucleotide containing mutations that disabled G-quadruplex formation (described previously[41]), and the G4 LTR scrambled-sequence oligonucleotide, or the buffer-only control. The compounds were tested at a compound:oligonucleotide ratio of 2:1 (4 μM compounds and 2 μM oligonucleotide) in PBS in a 384-well plate. Emission spectra were measured after excitation at 280 nm in a Tecan Infinite M1000 plate reader. The fluorescent image of the plate was taken with the Bio-Rad ChemiDoc imaging system after UV-light excitation. The Light-up titration experiment was performed similarly as described above with the exception that 4 μM compound 12 was incubated with serial dilutions (1:1) of oligonucleotides (ss G4 LTR wild type, G4 c-myc and G4 c-kit1) spanning final concentrations 2 to 0.002 μM. The excitation at 280 nm and emission at 600 nm were used to monitor the Light-up.

[5] = test system: c-kit1 G-quadruplex; assay: Light-up experiment, c-kit1; type: binding; conditions: 4 μM compound, excitation 280 nm
Experimental: as §4, §5

[6] = test system: ds G4 LTR; assay: Light-up experiment, ds G4 LTR; type: binding, HIV-1; conditions: 4 μM compound, excitation 280 nm
Experimental: as §4, §5

[7] = test system: h-telo G-quadruplex; assay: Light-up experiment, h-telo; type: binding; conditions: 4 μM compound, excitation 280 nm
Experimental: as §4, §5

[8] = 2 μM oligonucleotide, excitation 280 nm

Row | SMILES | EC50 [1] [nM] | CC50 at 5 days [2] [µM] | fluorescence light-up [3] | fluorescence light-up [4, 8] | maximum fluorescence intensity with non-G4-forming oligonucleotides (M4 + M5, scrambled), times lower than with wt [4, 8] [times] | fluorescence in light-up titration, ss G4 LTR versus c-myc and c-kit1 ([4]; oligonucleotide concentration of 0.5 μM and below, emission 600 nm) | fluorescence light-up [5] | fluorescence light-up [6] | fluorescence light-up [7]
1 | COc1ccc2ccccc2c1/C=C/c1cc[n+]2c(c1)-c1c(c(C)c(C)c3c1-c1cc(/C=C/c4c(OC)ccc5ccccc45)cc[n+]1CC3)CC2 [Compound 15] | 2740 | > 50 | – | – | – | – | – | – | –
2 | C(=C\c1cc(/C=C/c2ccc3c(c2)CCO3)[n+]2c(c1)-c1c(ccc3c1-c1cccc[n+]1CCC3)CCC2)/c1ccc2c(c1)CCO2 [Compound 14] | 2700 | > 50 | – | – | – | – | – | – | –
3 | Cn1cc(/C=C/c2cc(/C=C/c3cn(C)c4ccccc34)[n+]3c(c2)-c2c(ccc4c2-c2cccc[n+]2CCC4)CCC3)c2ccccc21 [Compound 12] | 2680 | > 50 | strong fluorescence | strong and specific fluorescence | 2.5 | stronger fluorescence after incubation with ss G4 LTR | strong fluorescence | very weak fluorescence | low fluorescence
